Three molecules from patent publication US20100197663A1, “METHOD AND COMPOSITIONS FOR TREATMENT OF PAINFUL DISORDERS” (RODLEN LABORATORIES, INC., priority 2004, published 2010) can be followed below.

Assay [1] has as its system widespread pain in the neck, shoulders, arms and legs. Put plainly: Case report: patient with widespread pain, headaches, non-restorative sleep and fatigue, oral treatment at H.S. Format: in vivo, human. As to conditions: person; before combination treatment.
In assay [2] the test system is widespread pain in the neck, back and arms associated with fibromyalgia. Put plainly: Case report: patient with fibromyalgia pain, oral treatment at H.S. The class given is in vivo, human. As to conditions: person; analgesic taken by itself, before combination treatment.

The structures appear in SMILES notation.

As to `CC(C)Cc1ccc(C(C)C(=O)O)cc1` (stereo not drawn) [ibuprofen], the “response of pain to analgesic alone” value in assay [1] was “unresponsive”.

With `CC(=O)Oc1ccccc1C(=O)O` [aspirin], the “response of pain to analgesic by itself” value in assay [2] is given as “unresponsive”.

On to `CC(=O)Nc1ccc(O)cc1` [acetaminophen], for which the “response of pain to analgesic by itself” value in assay [2] is reported as “unresponsive”.
